According to PubChem BioAssay (NCI):
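48-hour exposure; five concentrations; linearly interpolated endpoints. GI50 marks 50% less growth. TGI is the concentration that stops growth completely.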

Legend:
Assay in all cases: NCI-60 cell line screen, 48 h
SF-268 CNS = tested on: SF-268 CNS
OVCAR-4 ovarian = tested on: OVCAR-4 ovarian
HCT-15 colon = tested on: HCT-15 colon
SNB-19 CNS = tested on: SNB-19 CNS
NCI-H23 lung = tested on: NCI-H23 lung
SNB-75 CNS = tested on: SNB-75 CNS
SF-539 CNS = tested on: SF-539 CNS
SN12C renal = tested on: SN12C renal
NCI/ADR-RES ovarian = tested on: NCI/ADR-RES ovarian
RPMI-8226 leukemia = tested on: RPMI-8226 leukemia
HCC-2998 colon = tested on: HCC-2998 colon
ACHN renal = tested on: ACHN renal
M14 melanoma = tested on: M14 melanoma
IGROV1 ovarian = tested on: IGROV1 ovarian
UO-31 renal = tested on: UO-31 renal
MALME-3M melanoma = tested on: MALME-3M melanoma
MOLT-4 leukemia = tested on: MOLT-4 leukemia
SK-MEL-2 melanoma = tested on: SK-MEL-2 melanoma
CAKI-1 renal = tested on: CAKI-1 renal
NCI-H226 lung = tested on: NCI-H226 lung
BT-549 breast = tested on: BT-549 breast
A549 NSCLC = tested on: A549 NSCLC
786-0 renal = tested on: 786-0 renal
OVCAR-3 ovarian = tested on: OVCAR-3 ovarian
SW-620 colon = tested on: SW-620 colon
SK-MEL-28 melanoma = tested on: SK-MEL-28 melanoma
COLO 205 colon = tested on: COLO 205 colon
SK-MEL-5 melanoma = tested on: SK-MEL-5 melanoma
U251 CNS = tested on: U251 CNS
T-47D breast = tested on: T-47D breast
OVCAR-8 ovarian = tested on: OVCAR-8 ovarian
HOP-62 NSCLC = tested on: HOP-62 NSCLC
MDA-MB-231 breast = tested on: MDA-MB-231 breast
PC-3 prostate = tested on: PC-3 prostate
HT29 colon = tested on: HT29 colon
RXF 393 renal = tested on: RXF 393 renal
TK-10 renal = tested on: TK-10 renal
HCT-116 colon = tested on: HCT-116 colon
EKVX NSCLC = tested on: EKVX NSCLC
KM12 colon = tested on: KM12 colon
MDA-MB-435 = tested on: MDA-MB-435
SR leukemia = tested on: SR leukemia
LOX IMVI melanoma = tested on: LOX IMVI melanoma
SF-295 CNS = tested on: SF-295 CNS
MCF7 breast = tested on: MCF7 breast
OVCAR-5 ovarian = tested on: OVCAR-5 ovarian
CCRF-CEM leukemia = tested on: CCRF-CEM leukemia
NCI-H460 lung = tested on: NCI-H460 lung
UACC-257 melanoma = tested on: UACC-257 melanoma
UACC-62 melanoma = tested on: UACC-62 melanoma
NCI-H522 lung = tested on: NCI-H522 lung
SK-OV-3 ovarian = tested on: SK-OV-3 ovarian
HOP-92 NSCLC = tested on: HOP-92 NSCLC
DU-145 prostate = tested on: DU-145 prostate

Compound O=C(COc1nc2ccccc2nc1-c1ccccc1)Nc1ccc(Cl)cc1 has a GI50 (SF-268 CNS) of 18.5 µM, a TGI (SF-268 CNS) of over 100 µM and a GI50 (OVCAR-4 ovarian) of 27.7 µM. It also gave a TGI (OVCAR-4 ovarian) of over 100 µM, a GI50 (HCT-15 colon) of 15.1 µM and a TGI (HCT-15 colon) of over 100 µM. For the same compound, the GI50 (SNB-19 CNS) was 21.6 µM, the TGI (SNB-19 CNS) was 89.1 µM and the GI50 (NCI-H23 lung) was 24.9 µM. The TGI (NCI-H23 lung) was over 100 µM, the GI50 (SNB-75 CNS) was 27.7 µM and the TGI (SNB-75 CNS) was over 100 µM. For the same compound, the GI50 (SF-539 CNS) was 14.5 µM, the TGI (SF-539 CNS) was 45.4 µM and the GI50 (SN12C renal) was 27.4 µM. It also gave a TGI (SN12C renal) of over 100 µM, a GI50 (NCI/ADR-RES ovarian) of 4.46 µM and a TGI (NCI/ADR-RES ovarian) of over 100 µM. It also gave a GI50 (RPMI-8226 leukemia) of 23.1 µM, a TGI (RPMI-8226 leukemia) of over 100 µM and a GI50 (HCC-2998 colon) of 15.6 µM. The TGI (HCC-2998 colon) was over 100 µM, the GI50 (ACHN renal) was 14.4 µM and the TGI (ACHN renal) was 37.9 µM. For the same compound, the GI50 (M14 melanoma) was 11.4 µM, the TGI (M14 melanoma) was 80.7 µM and the GI50 (IGROV1 ovarian) was 14.3 µM. For the same compound, the TGI (IGROV1 ovarian) was 49.4 µM, the GI50 (UO-31 renal) was 17.1 µM and the TGI (UO-31 renal) was over 100 µM. The GI50 (MALME-3M melanoma) was 20.9 µM, the TGI (MALME-3M melanoma) was 66.3 µM and the GI50 (MOLT-4 leukemia) was 12.6 µM. It also gave a TGI (MOLT-4 leukemia) of over 100 µM, a GI50 (SK-MEL-2 melanoma) of 15.1 µM and a TGI (SK-MEL-2 melanoma) of 58 µM. It also gave a GI50 (CAKI-1 renal) of 9.04 µM, a TGI (CAKI-1 renal) of over 100 µM and a GI50 (NCI-H226 lung) of 10.2 µM. It also gave a TGI (NCI-H226 lung) of 49.1 µM, a GI50 (BT-549 breast) of 33.6 µM and a TGI (BT-549 breast) of over 100 µM. For the same compound, the GI50 (A549 NSCLC) was 27.8 µM, the TGI (A549 NSCLC) was over 100 µM and the GI50 (786-0 renal) was 14.3 µM. It also gave a TGI (786-0 renal) of 71.3 µM, a GI50 (OVCAR-3 ovarian) of 5.56 µM and a TGI (OVCAR-3 ovarian) of 36.9 µM. For the same compound, the GI50 (SW-620 colon) was 25.7 µM, the TGI (SW-620 colon) was over 100 µM and the GI50 (SK-MEL-28 melanoma) was 18.7 µM. It also gave a TGI (SK-MEL-28 melanoma) of over 100 µM, a GI50 (COLO 205 colon) of 15.5 µM and a TGI (COLO 205 colon) of over 100 µM. It also gave a GI50 (SK-MEL-5 melanoma) of 4.17 µM, a TGI (SK-MEL-5 melanoma) of 19.7 µM and a GI50 (U251 CNS) of 13.2 µM. For the same compound, the TGI (U251 CNS) was 56.4 µM, the GI50 (T-47D breast) was 37.5 µM and the TGI (T-47D breast) was over 100 µM. For the same compound, the GI50 (OVCAR-8 ovarian) was 11.3 µM, the TGI (OVCAR-8 ovarian) was over 100 µM and the GI50 (HOP-62 NSCLC) was 11.9 µM. It also gave a TGI (HOP-62 NSCLC) of 40.2 µM, a GI50 (MDA-MB-231 breast) of 15.1 µM and a TGI (MDA-MB-231 breast) of 65 µM. For the same compound, the GI50 (PC-3 prostate) was 9.99 µM, the TGI (PC-3 prostate) was over 100 µM and the GI50 (HT29 colon) was 11.4 µM. For the same compound, the TGI (HT29 colon) was over 100 µM, the GI50 (RXF 393 renal) was 29.3 µM and the TGI (RXF 393 renal) was 80 µM. It also gave a GI50 (TK-10 renal) of 15.1 µM, a TGI (TK-10 renal) of 76.8 µM and a GI50 (HCT-116 colon) of 6.23 µM. The TGI (HCT-116 colon) was 27.8 µM, the GI50 (EKVX NSCLC) was 26.9 µM and the TGI (EKVX NSCLC) was over 100 µM. For the same compound, the GI50 (KM12 colon) was 8.38 µM, the TGI (KM12 colon) was over 100 µM and the GI50 (MDA-MB-435) was 18.4 µM. The TGI (MDA-MB-435) was over 100 µM, the GI50 (SR leukemia) was 6.54 µM and the TGI (SR leukemia) was over 100 µM. It also gave a GI50 (LOX IMVI melanoma) of 15.7 µM, a TGI (LOX IMVI melanoma) of 49.2 µM and a GI50 (SF-295 CNS) of 5.09 µM. The TGI (SF-295 CNS) was 40.1 µM, the GI50 (MCF7 breast) was 36.8 µM and the TGI (MCF7 breast) was over 100 µM. The GI50 (OVCAR-5 ovarian) was 11 µM, the TGI (OVCAR-5 ovarian) was over 100 µM and the GI50 (CCRF-CEM leukemia) was 17.3 µM. It also gave a TGI (CCRF-CEM leukemia) of over 100 µM, a GI50 (NCI-H460 lung) of 9.79 µM and a TGI (NCI-H460 lung) of 77.8 µM. For the same compound, the GI50 (UACC-257 melanoma) was 50.1 µM, the TGI (UACC-257 melanoma) was over 100 µM and the GI50 (UACC-62 melanoma) was 12.9 µM. The TGI (UACC-62 melanoma) was 67.7 µM, the GI50 (NCI-H522 lung) was 3.5 µM and the TGI (NCI-H522 lung) was 28.6 µM. For the same compound, the GI50 (SK-OV-3 ovarian) was 47.6 µM, the TGI (SK-OV-3 ovarian) was over 100 µM and the GI50 (HOP-92 NSCLC) was 8.77 µM. The TGI (HOP-92 NSCLC) was 36.7 µM, the GI50 (DU-145 prostate) was 54.9 µM and the TGI (DU-145 prostate) was over 100 µM.
